Test results from patent US20070078096A1, “Buffered drug formulations for transdermal electrotransport delivery” (priority 1997, published 2007).
Values after ≈ are worked out from the molar mass of the structure shown. Read-outs that look alike come from different tables or passages of the source. Residues, ends and D or L forms follow the SMILES beside them.

Tests used:
[1] = Solubility of dipeptides at their pI; type: physicochemical
Source text: (§1) Table 1 lists conductivities and solubilities of selected dipeptides useful in the present invention, at their pI.

[2] = pKa, pI and charge distribution of buffers; conditions: for % salt: fraction of dipeptide carrying a net charge in aqueous solution at pH equal to pI
Source text: At the pI, three species coexist.
In an electric field these negative species move in the opposite direction of their positive associated counterions.
Choice of the dipeptide buffer will be on a case-by-case basis depending on the drug compound and the desired level of pH control and conductivity of the formulation.

[3] = Conductivity of dipeptides at their pI; type: physicochemical
Source text: as §1

[4] = In vivo iontophoresis, pH control of anodic and cathodic buffer gels (Example 2); design: species or system hairless guinea pigs; Ionic strength (approx.): unit not given here; conditions: for Anodic pH after 5 h electrotransport / Cathodic pH after 5 h electrotransport: 0.1 mA/cm^2; for Initial pH: prior to application; for pH control of a cathodic electrotransport formulation: for at least 5 hours; for pH control of a cathodic electrotransport formulation / pH control of an anodic electrotransport formulation: dipeptides at their pI; for pH control of an anodic electrotransport formulation: for several hours
Protocol: In vivo iontophoresis experiments were performed using custom built electrotransport systems. […] This formulation was separated from the anode electrode by a Sybron ion exchange membrane. […] The cathode-compartment comprised a skin-contacting gel containing the aqueous solution of the buffering agent at the indicated concentration and 3% HEC. This formulation was separated from the cathode electrode by a Nafion ion exchange membrane. […] The electrodes were connected to a DC power source which supplied a constant level of electric current of 0.1 mA/cm^2. Experiments were performed in vivo in hairless guinea pigs. Three animals were used for each condition studied. The electrotransport systems were applied to and removed from the flank of the animals. The two reservoirs were generally spaced about 5 cm apart. The application site was wiped with water prior to system application. pH of the gels was measured prior to application and after removal of the systems using a HORIBA compact pH […]).

[5] = anodic gel, listed as Phosphate 33 mM
[6] = anodic gel, listed as Phosphate 100 mM

Row | SMILES | Solubility [1] [mol/L] | pka A [2] | pI ([2]; Table 1) | pI ([2]; Table 2) | % salt [2] [%] | Conductivity at 10^−2 Molar [3] [μS/cm] | also measured
1 | C[C@H](NC(=O)[C@@H](N)Cc1cnc[nH]1)C(=O)O [His-Ala] (H-His-Ala-OH) | 0.50 (≈ 113 mg/mL) | 2.48 | 6.95 | 6.95 | 22 | 60 | –
2 | O=P(O)(O)O [phosphate, phosphoric acid, reference compound] | – | – | – | – | – | – | Ionic strength (approx.) ([4]; Table 3, anodic buffer gel, listed as Phosphate 10 mM): ~0.015; Ionic strength (approx.) ([4]; Table 3, anodic buffer gel, listed as Phosphate 33 mM): ~0.05; Ionic strength (approx.) ([4]; Table 3, anodic buffer gel, listed as Phosphate 100 mM): ~0.15; Ionic strength (approx.) ([4]; Table 4, cathodic buffer gel): ~0.015; Anodic pH after 5 h electrotransport [4, 5]: 3.3; Anodic pH after 5 h electrotransport [4, 6]: 6.5; Initial pH ([4]; anodic gel, listed as Phosphate 10 mM): 6.9; Initial pH [4, 5]: 6.9; Initial pH [4, 6]: 6.8; Cathodic pH after 5 h electrotransport ([4]; cathodic gel): 4.2; Initial pH ([4]; cathodic gel): 6.9; pH control of a cathodic electrotransport formulation [4]: lack of stability; pH control of an anodic electrotransport formulation [4]: lack of stability
3 | N[C@@H](Cc1cnc[nH]1)C(=O)N[C@@H](CC(=O)O)C(=O)O [His-Asp] (H-His-Asp-OH) | 0.05 (≈ 13.5 mg/mL) | – | 5.22 | 5.22 | 11 | 28 | –
4 | O=S(=O)(O)CCCN1CCOCC1 [MOPS, 3-[N-morpholino]propanesulphonic acid, reference compound] | – | – | – | – | – | – | pI [2]: 4; buffering capacity at its pI ([2]; at pI): does not present any buffering capacity; conductivity of solutions at its pI ([2]; at pI): non-conductive; net charge at pH 7 ([2]; pH 7): −0.5; Ionic strength (approx.) ([4]; Table 3, anodic buffer gel): ~0.01; Ionic strength (approx.) ([4]; Table 4, cathodic buffer gel): ~0.01; Anodic pH after 5 h electrotransport ([4]; anodic gel): 4.1; Initial pH ([4]; anodic gel): 7.0; Cathodic pH after 5 h electrotransport ([4]; cathodic gel): 5.4; Initial pH ([4]; cathodic gel): 7.0; pH control of a cathodic electrotransport formulation [4]: lack of stability; pH control of an anodic electrotransport formulation [4]: lack of stability
5 | NCCCC[C@H](N)C(=O)N[C@@H](CC(=O)O)C(=O)O [Lys-Asp] (H-Lys-Asp-OH) | 1.00 (≈ 261 mg/mL) | – | 6.08 | 6.08 | 2 | 6 | –
6 | NCCCC[C@H](N)C(=O)N[C@@H](CCC(=O)O)C(=O)O [Lys-Glu] (H-Lys-Glu-OH) | 0.50 (≈ 138 mg/mL) | – | 6.06 | 6.06 | 3 | 8 | –
7 | NCCCC[C@H](NC(=O)[C@@H](N)CCC(=O)O)C(=O)O [Glu-Lys] (H-Glu-Lys-OH) | 1.00 (≈ 275 mg/mL) | – | 6.00 | 6.00 | 2 | 6 | –
8 | CC(C)[C@H](N)C(=O)N[C@@H](Cc1cnc[nH]1)C(=O)O [Val-His] (H-Val-His-OH) | 0.20 (≈ 50.9 mg/mL) | 3.09 | 7.38 | 7.38 | 34 | 94 | –
9 | NCCCC[C@H](NC(=O)[C@@H](N)Cc1cnc[nH]1)C(=O)O [His-Lys] (H-His-Lys-OH) | – | 3.05 | – | 9.40 | 5 | – | –
10 | CC[C@H](C)[C@H](NC(=O)[C@@H](N)Cc1cnc[nH]1)C(=O)O [His-Isoleucine] (H-His-Ile-OH) | – | 3.13 | – | 6.95 | 22 | – | –
11 | N[C@@H](Cc1cnc[nH]1)C(=O)N[C@@H](Cc1ccccc1)C(=O)O [His-Phe] (H-His-Phe-OH) | – | 2.88 | – | 6.95 | 22 | – | –
12 | N[C@@H](Cc1cnc[nH]1)C(=O)NCC(=O)O [His-Gly] (H-His-Gly-OH) | 1.00 (≈ 212 mg/mL) | 2.41 | 6.90 | 6.90 | 16 | 40 | –
